Data taken from article PMC9950073, “Alleviation of arthritis through prevention of neutrophil extracellular traps by an orally available inhibitor of protein arginine deiminase 4” (Scientific Reports, 2023).
Converted amounts (≈) assume the structure as drawn.

Experiments:
[1] = molecular target: T1, CYP2D6 (Homo sapiens, UniProt P10635); assay: CYP inhibition in human liver microsome, CYP2D6; type: in vitro ADME
T1 construct: from tissue; host or cells: human liver microsomes
Method: CYP inhibition: Human liver microsome (0.1–0.5 mg/mL for various CYPs) and appropriate probe substrates (2.5–20 µM) were incubated in potassium phosphate buffer with or without JBI-589 for 5 min at 37 °C. The reaction was initiated by addition of NADPH (1 mM), incubated at 37 °C for 10 min and quenched (0.5% Formic acid in internal standard (IS) containing ACN). Samples were then centrifuged and taken for LC–MS/MS analysis. Percent change in metabolite formation for each substrate under above conditions using formula: Percent inhibition = [1 − (test area ratio/control area ratio)] *100.

[2] = tested on: mouse neutrophils; assay: NET formation assay on neutrophils isolated from orally dosed mice; type: in vivo; details: 50 mg/kg orally for seven consecutive days
Method: To determine the effects of JBI-589 on NET formation, an in vitro NET assay was performed. In mouse neutrophils, ionomycin stimulation induced more than 90% of H4Cit-positivity and NET formation in approximately 15% of neutrophils. […] To evaluate the in vivo effects, JBI-589 at 50 mg/kg or vehicle (water) was orally administered twice daily for seven consecutive days. Four hours after the last administration, mouse neutrophils were isolated, and then a NET formation assay was performed.
Mouse peripheral blood was collected by retro-orbital puncture in ethylenediaminetetraacetic acid (EDTA) anticoagulated buffer supplemented with 1% endotoxin-free BSA in sterile PBS. Neutrophils were isolated by Percoll gradient centrifugation as described previously. The purity of neutrophils was more than 90% as confirmed by the Wright-Giemsa stain.
Mouse or human neutrophils were resuspended in HEPES-supplemented phenol red-free RPMI1640 medium and 1.5 × 10^4 cells were seeded per well in a 96-well plate. After incubating for 20 min at 37 °C and 5% CO2, the cells were stimulated with vehicle control or ionomycin (Sigma, Catalog No: I24222) (4 µM) for 4 h. Neutrophils were fixed with 4% paraformaldehyde (PFA), washed and permeabilized (0.1% Triton X-100, 0.1% sodium citrate) for 10 min at 4 °C. Subsequently, neutrophils were incubated with blocking buffer (2.5% BSA, 0.5% Tween-20 in 1 × PBS) at room temperature for an hour followed by overnight incubation with the primary antibody against citrullinated histone H4 (H4Cit, 1:250, catalog number: 07-596, Millipore, Burlington, MA). After washing 3 times with PBS, neutrophils were incubated with Hoechst 33342 (1:10,000, catalog number: H3570, Invitrogen). Images were obtained with a Zeiss Axiovert 200 M wide-field fluorescence microscope (Zeiss, Oberkochen, Germany) with the Zeiss AxioVision software. The percentages of H4Cit positive neutrophils and neutrophil extracellular traps (NETs) were calculated by quantifying more than 200 randomly selected cells. […]

[3] = tested on: human neutrophils; assay: In vitro NET assay, human neutrophils; type: cell-based; details: 10 μM, ionomycin 4 µM 4 h
From the text: All blood samples from healthy donors who participated in this study were obtained after informed consent in accordance with relevant guidelines and regulations given by the ACE Independent ethics committee for Jubilant Biosys Ltd and Office of Clinical Investigations at Boston Children’s Hospital. The ACE Independent ethics committee, Bangalore, approved the use of human whole blood/PBMC/Enriched Subset in Jubilant Biosys Ltd investigations, Drug Controller General of India (DCGI) Reg No. ECR/141/Indt/KA/2013. Briefly, 10 mL K2EDTA vacutainers were used to collect fresh blood from healthy donors (BD vacutainer, Catalog No: BD 367525). A total of 50 ml of blood was taken from a single, healthy human donor. Neutrophils were isolated from human blood using the EasySep Direct Human Neutrophil Isolation Kit, according to the manufacturer's instructions (Stem Cell Technology, Catalog No: 19666). […]
Mouse or human neutrophils were resuspended in HEPES-supplemented phenol red-free RPMI1640 medium and 1.5 × 10^4 cells were seeded per well in a 96-well plate. […] Images were obtained with a Zeiss Axiovert 200 M wide-field fluorescence microscope (Zeiss, Oberkochen, Germany) with the Zeiss AxioVision software. The percentages of H4Cit positive neutrophils and neutrophil extracellular traps (NETs) were calculated by quantifying more than 200 randomly selected cells. […]

[4] = Solubility; type: physicochemical
From the text: Supplement 41598_2023_30246_MOESM1_ESM.docx, table 2: Supplementary Table S2. In vitro ADME parameters of JBI-589 | column: 90

[5] = molecular target: T2, human recombinant PAD6 (Homo sapiens, UniProt Q6TGC4); assay: PAD6 selectivity biochemical assay measuring ammonia release; details: 10 semi-log concentrations, highest concentration tested 30 µM
T2 construct: purchased Signal Chem T1065-3
T2 sequence (Q6TGC4 1-694): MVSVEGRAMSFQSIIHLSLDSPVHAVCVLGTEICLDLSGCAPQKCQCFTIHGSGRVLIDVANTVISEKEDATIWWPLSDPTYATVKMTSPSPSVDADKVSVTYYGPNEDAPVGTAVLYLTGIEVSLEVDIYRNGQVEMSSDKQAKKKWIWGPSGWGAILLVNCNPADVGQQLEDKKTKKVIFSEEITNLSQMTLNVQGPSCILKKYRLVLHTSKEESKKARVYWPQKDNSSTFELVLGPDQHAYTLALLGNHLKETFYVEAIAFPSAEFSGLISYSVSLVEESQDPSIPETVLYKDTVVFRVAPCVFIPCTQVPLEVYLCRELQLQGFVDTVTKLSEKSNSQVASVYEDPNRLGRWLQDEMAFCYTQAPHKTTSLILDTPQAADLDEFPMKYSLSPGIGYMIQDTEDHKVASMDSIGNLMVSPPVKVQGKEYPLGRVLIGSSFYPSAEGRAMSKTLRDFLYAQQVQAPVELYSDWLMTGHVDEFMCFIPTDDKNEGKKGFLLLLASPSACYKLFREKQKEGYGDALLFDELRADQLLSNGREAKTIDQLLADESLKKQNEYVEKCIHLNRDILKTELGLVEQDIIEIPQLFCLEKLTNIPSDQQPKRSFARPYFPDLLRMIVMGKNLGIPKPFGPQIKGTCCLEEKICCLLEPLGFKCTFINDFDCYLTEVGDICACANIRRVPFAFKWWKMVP

[6] = neutrophils isolated 4 h after last administration, ionomycin 4 µM

T1 sequence (P10635 whole entry): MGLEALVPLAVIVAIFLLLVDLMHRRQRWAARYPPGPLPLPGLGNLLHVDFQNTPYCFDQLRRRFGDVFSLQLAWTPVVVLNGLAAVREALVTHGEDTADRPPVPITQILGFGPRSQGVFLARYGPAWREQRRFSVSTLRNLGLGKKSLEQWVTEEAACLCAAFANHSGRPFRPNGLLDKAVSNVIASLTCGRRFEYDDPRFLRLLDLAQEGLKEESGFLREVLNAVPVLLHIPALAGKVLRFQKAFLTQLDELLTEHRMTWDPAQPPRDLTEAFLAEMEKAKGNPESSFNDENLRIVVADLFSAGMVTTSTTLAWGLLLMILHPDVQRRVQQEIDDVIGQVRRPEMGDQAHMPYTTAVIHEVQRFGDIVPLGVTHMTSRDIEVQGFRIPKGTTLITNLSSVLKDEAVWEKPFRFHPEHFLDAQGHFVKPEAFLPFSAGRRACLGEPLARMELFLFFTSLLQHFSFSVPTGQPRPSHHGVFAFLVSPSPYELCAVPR

**Q.** What does the source list for `Cc1c(-c2cc3ccccc3n2Cc2ccc(F)cc2)nc2cc(C(=O)N3CCC[C@@H](N)C3)ccn12` [JBI-589, (R)-(3-aminopiperidin-1-yl)(2-(1-(4-fluorobenzyl)-1H-indol-2-yl)-3-methylimidazo[1,2-a]pyridin-7-yl)methanone]?
**A.** inhibition at 10 min, 10 µM ([1]; human liver microsomes, 10 µM, human liver microsome, read-out: CYP2D6 inhibition (% inh @10 µM)): < 50%; IC50 ([1]; predicted from % inhibition, text says major CYPs tested): > 10 µM; H4Cit positivity compared with vehicle [2, 6]: reduced both H4Cit positivity and NET formation significantly; NET formation compared with vehicle [2, 6]: reduced both H4Cit positivity and NET formation significantly; percentage of H4Cit positive cells ([2]; vehicle 88%, p = 0.01): 83%; H4Cit positivity [3]: the same effect was confirmed; NET formation [3]: the same effect was confirmed; solubility [4]: 90 µM (≈ 43.3 µg/mL); inhibitory activity against PAD6 [5]: did not have any inhibitory activity
